Test results reported in article PMC3838804, “Rapid Identification of Aldose Reductase Inhibitory Compounds from Perilla frutescens” (BioMed Research International, 2013).
Where two headings read alike, the source gives them in different places. Each block holds one compound with its values, some of them ahead of it.

Experiments:
rAR (aldose reductase) = target: T1, rAR (aldose reductase) (Rattus norvegicus, UniProt P07943); assay: HPLC microfractionation combined with 96-well enzyme assay for rAR inhibition; assay type: biochemical; settings: HPLC microfractions of EtOAc soluble fraction (10 μL of 10 mg/mL injected), 96-well plate; hit limit 18.49%
T1 construct: The rat lens homogenate was prepared according to Hayman and Kinoshita with some modifications; from tissue; host or cells: rat lens (male Sprague-Dawley rats)
Description: An automated fraction collector (Foxy 200; ISCO, Lincoln, NE, USA) coupled with HPLC equipment (Thermo Electron Spectra HPLC system; Thermo Separation Products, San Jose, CA, USA) was used to separate and collect compounds from extracts directly into 96-well plates (Nunc, Roskilde, Denmark) at 0.4 mL/well (Figure 1). […] The mobile phase, consisting of acetonitrile (ACN) and 0.1% aqueous trifluoroacetic acid (TFA), was used at a flow rate of 0.8 mL/min. The gradient elution program was 7.5–26.5% B (0–20 min), 26.5% B (20–30 min), 26.5–36% B (30–40 min), and 36–100% B (40–45 min). Injection volume was 10 μL at sample concentration 10 mg/mL and detection wavelength 280 nm. After collection, all fractions were evaporated to dryness using an EZ-2 plus evaporator (Gene Vac Ltd., Ipswich, UK).
The effect on rAR inhibitory activity (%) was calculated as the change in absorbance in a sample well versus the change in absorbance in a blank well (average, n = 12). Spontaneous hydrolysis was subtracted from the reaction rate. The hit limit was set at 3 standard deviations (SD) from the minimum AR inhibitory activity. Z′-factor, signal-to-background ratio (S/B), and signal-to-noise ratio(S/N) were used to evaluate the quality of the test: Z′ = 1[(3 × SDs + 3 × SDb)/|X s X b|], S/B = X s/X b, and S/N = (X s X b)/(SDs ^2 + SDb ^2)^1/2; X s and SDs are average and standard deviation of the signal, that is, absorption detected at the 8th measurement point in blank wells (n = 12) after adding the enzyme; X b and SDb are average and SD of the background, that is, absorption at the first measurement point in blank wells (n = 12) after adding the enzyme.
Crude rAR was prepared as follows. Rat lenses were removed from […] male Sprague-Dawley rats weighing 250–280 g and frozen until required. The rat lens homogenate was prepared according to Hayman and Kinoshita with some modifications. A partially purified enzyme with a specific activity of 6.5 U/mg was routinely used to test enzyme inhibition. The partially purified material was separated into 1.0 mL aliquots and stored at […]. rAR activity was assayed spectrophotometrically by measuring the decrease in NADPH absorption at 340 nm over a 4 min period with dl-glyceraldehyde substrate. Each 1.0 mL cuvette contained equal units of the enzyme, 0.10 M sodium phosphate buffer (pH 6.2), and 0.3 mM NADPH, with or without 10 mM substrate and an inhibitor [22, 23].

[1] = target: rAR (rat lens aldose reductase) (Rattus norvegicus, UniProt P07943); assay: Assay for rAR inhibitory activity (NADPH absorption decrease at 340 nm, DL-glyceraldehyde substrate); assay type: biochemical; settings: for rAR inhibitory activity (in words): isolated compound; for IC50: read-out: IC50 on rAR (isolated compounds)
Description: Crude rAR was prepared as follows. Rat lenses were removed from closed male Sprague-Dawley rats weighing 250–280 g and frozen until required. The rat lens homogenate was prepared according to Hayman and Kinoshita with some modifications [20, 21]. […] The partially purified material was separated into 1.0 mL aliquots and stored at 40°C. rAR activity was assayed spectrophotometrically by measuring the decrease in NADPH absorption at 340 nm over a 4 min period with dl-glyceraldehyde substrate. Each 1.0 mL cuvette contained equal units of the enzyme, 0.10 M sodium phosphate buffer (pH 6.2), and 0.3 mM NADPH, with or without 10 mM substrate and an inhibitor [22, 23].

rAR inhibitory activity in the corresponding wells (rAR (aldose reductase)): 21.31%
rAR inhibitory activity (in words) [1]: weak inhibitory activity
Structure (SMILES): O=C(O)/C=C/c1ccc(O)c(O)c1 [Compound 3, caffeic acid]

rAR inhibitory activity in the corresponding wells (rAR (aldose reductase)): 22.94%
IC50 [1]: 4.03 µM
Structure (SMILES): COC(=O)[C@@H](Cc1ccc(O)c(O)c1)OC(=O)/C=C/c1ccc(O)c(O)c1 [Compound 6, methyl rosmarinic acid]

More lines, now with the values behind:

Structure (SMILES): O=C(O)c1ccc(O)c(O)c1 [Compound 1, protocatechuic acid]
rAR inhibitory activity in the corresponding wells (rAR (aldose reductase)): 20.46%
rAR inhibitory activity (in words) [1]: did not exhibit inhibitory activity

Structure (SMILES): O=C(/C=C/c1ccc(O)c(O)c1)O[C@@H]1C[C@](O)(C(=O)O)C[C@@H](O)[C@H]1O [Compound 2, chlorogenic acid]
rAR inhibitory activity in the corresponding wells (rAR (aldose reductase)): 34.50%
IC50 [1]: 3.16 µM

Structure (SMILES): O=C(/C=C/c1ccc(O)c(O)c1)O[C@H](Cc1ccc(O)c(O)c1)C(=O)O [Compound 4, rosmarinic acid]
rAR inhibitory activity in the corresponding wells (rAR (aldose reductase)): 53.31%
IC50 ([1]; concentration at 50% inhibition, crude rat lens AR, pH 6.2): 2.77 µM

Structure (SMILES): O=c1cc(-c2ccc(O)c(O)c2)oc2cc(O)cc(O)c12 [Compound 5, luteolin]
rAR inhibitory activity in the corresponding wells (rAR (aldose reductase)): 29.46%
